Source: US20030119013A1, “Identification of essential genes of Aspergillus fumigatus and methods of use” (priority 2001, published 2003)

Experiments:
[1] = system: Aspergillus fumigatus transformed cells containing the integrated PglaA promoter (AfHIS3); test: Titration against 3-aminotriazole of PglaA-AfHIS3 promoter replacement strain; type: cell-based
Text: Aspergillus fumigatus is sensitive to the catalase inhibitor 3-aminotriazole (3-AT), which targets the product of the HIS3 gene. The concentration of 3-AT sufficient to inhibit growth of Aspergillus fumigatus is thusly dependent on the amount of HIS3 gene product present in the cells.
For instance, culturing the transformed cells containing the integrated PglaA promoter in a medium supplemented with different carbon sources or ratios of carbon sources allows the amount of AfHIS3 gene product to be increased or decreased relative to endogenous levels to generate cells that are more or less sensitive to 3-AT based on the amount of HIS3 gene product. It is known, for example, that transcription from the PglaA promoter is induced in the presence of maltose, repressed in the presence of xylose and intermediate levels of activity are detected from cells grown on glucose. By adjusting the ratio of maltose to xylose in the culture medium, the amount of transcription may be titrated, at least in a step-wise manner, to adjust levels of transcript in the cell.

[2] = system: bar-coded strains bearing heterozygous mutations in HIS3, TUB1, ALG7, and ERG11; details: Saccharomyces cerevisiae, mixed population, challenged with respective compound; cited from earlier work
[3] = system: AfERG11β knockout strain and AfERG11α knockout strain; test: Azole sensitivity on agar gradient plates, knockout strains; type: cell-based, Aspergillus fumigatus
Text: (§1) Aspergillus fumigatus strains were constructed in which either the AfERG11 gene or the AfERG11β gene had been “knocked out.” Each of these strains was compared to the wild-type Aspergillus fumigatus strain CEA 10 with respect to its sensitivity, as analyzed on agar gradient plates, to two representative azole compounds, ketoconazole and itraconazole.

[4] = system: wild-type Aspergillus fumigatus strain CEA 10; test: Azole sensitivity on agar gradient plates, wild-type strain; type: cell-based; details: versus AfERG11 and AfERG11β knockout strains
Text: as §1

[5] = system: invasive aspergillosis (IA); details: patients with invasive aspergillosis; cited from earlier work

In the case of `Nc1nc[nH]n1` [3-AT, 3-aminotriazole], the “sensitivity of Aspergillus fumigatus to 3-aminotriazole” value ([1]; Aspergillus fumigatus, general statement) is reported as “sensitive”, the “resistance in the presence of 3-AT” value ([1]; cells grown in the presence of maltose (e.g. 2% maltose), PglaA induced) is reported as “increased resistance” and the “resistance to 3-AT” value ([1]; cells grown in the presence of xylose (e.g. 1% xylose), PglaA repressed) is reported as “decreased resistance”. The “sensitivity of heterozygous drug-target strain compared with other heterozygote bar-coded strains” value [2] was “significantly greater sensitivity”.

For `CC(=O)N1CCN(c2ccc(OCC3COC(Cn4ccnc4)(c4ccc(Cl)cc4Cl)O3)cc2)CC1` (stereo not shown) [ketoconazole], the “resistance of AfERG11β knockout strain compared with AfERG11α knockout strain” value [3] was “more resistant” and the “resistance of wild-type strain CEA 10 compared with either knockout strain” value [4] was “more resistant”.

In the case of `CCCCNC(=O)n1c(NC(=O)OC)nc2ccccc21` [benomyl], the “sensitivity of heterozygous drug-target strain compared with other heterozygote bar-coded strains” value [2] is listed as “significantly greater sensitivity”.

For `C[C@@H]1[C@H](O)[C@@H](C)/C=C/C=C/C=C/C=C/C=C/C=C/C=C/[C@H](O[C@@H]2O[C@H](C)[C@@H](O)[C@H](N)[C@@H]2O)C[C@@H]2O[C@](O)(C[C@@H](O)C[C@@H](O)[C@H](O)CC[C@@H](O)C[C@@H](O)CC(=O)O[C@H]1C)C[C@H](O)[C@H]2C(=O)O` [AmB, amphotericin B], the “overall success rate of therapy for IA” value [5] is given as 34%.

In the case of tunicamycin, the “sensitivity of heterozygous drug-target strain compared with other heterozygote bar-coded strains” value [2] is listed as “significantly greater sensitivity”.

In the case of `OC(Cn1cncn1)(Cn1cncn1)c1ccc(F)cc1F` [fluconazole], the “sensitivity of heterozygous drug-target strain compared with other heterozygote bar-coded strains” value [2] is given as “significantly greater sensitivity”.
